Experimental data from publication PMC10895652, “Preclinical Evaluation of Novel Positron Emission Tomography (PET) Probes for Imaging Leucine-Rich Repeat Kinase 2 (LRRK2)” (Journal of Medicinal Chemistry, 2024).
Like-named read-outs stand apart in the source and are kept apart here. One block for each compound: values may come before it.

Experiments:
LRRK2 [1] = target: LRRK2; parameters: method as in PMID 31365783, PMID 36256881, PMID 33582389, PMID 33248850; conditions: saturation assays; cited from earlier work
LRRK2 WT = conditions: cited from earlier work
MDR1 = conditions: cited from earlier work
[2] = cited from earlier work; for RRCK Papp AB: molecular formula strings file
LRRK2 [3] = target: T1, LRRK2 (Rattus norvegicus, UniProt F1LNJ1); test: In vitro autoradiography in rat brain sections; type: binding; conditions: blocking with 3 (10 μM)
T1 construct: from tissue; host or cells: rat brain (Sprague-Dawley rats)
Procedure: The general procedure for autoradiography studies was described previously with minor revision in this work.[36],[40] Brain sections from rats were preincubated with Tris-HCl buffer (50 mM), MgCl2 (1.2 mM) and CaCl2 (2 mM) solution for 20 min at ambient temperature, followed by incubation with [^11C]3 and [^18F]4 (0.48 nM). […] After incubation, brain sections were rinsed with ice-cold buffer 3 times for 2 min and dipped in cold distilled water for 10 s. The brain sections were dried with cold air and then placed on imaging plates (BAS-MS2025, GE Healthcare, NJ) for optimized contact periods. Autoradiograms were obtained and regions of interest (ROIs) were carefully drawn with the reference of naked-eye observation. Radioactivity was measured using an Amersham Typhoon 5 analyzer system and expressed as photostimulated luminescence values per unit area (PSL/mm^2) or normalized to % of radioactivity vs control.

LRRK2 G2019S = conditions: cited from earlier work
LRRK2 [4] = conditions: read-out: WCA IC50, cited from earlier work
[5] = human liver microsomal clearance; cited from earlier work
THLE cells = conditions: THLE cell viability; cited from earlier work
[6] = parameters: method as in earlier work; conditions: molecular formula strings file; cited from earlier work

T1 sequence (F1LNJ1 1-2526): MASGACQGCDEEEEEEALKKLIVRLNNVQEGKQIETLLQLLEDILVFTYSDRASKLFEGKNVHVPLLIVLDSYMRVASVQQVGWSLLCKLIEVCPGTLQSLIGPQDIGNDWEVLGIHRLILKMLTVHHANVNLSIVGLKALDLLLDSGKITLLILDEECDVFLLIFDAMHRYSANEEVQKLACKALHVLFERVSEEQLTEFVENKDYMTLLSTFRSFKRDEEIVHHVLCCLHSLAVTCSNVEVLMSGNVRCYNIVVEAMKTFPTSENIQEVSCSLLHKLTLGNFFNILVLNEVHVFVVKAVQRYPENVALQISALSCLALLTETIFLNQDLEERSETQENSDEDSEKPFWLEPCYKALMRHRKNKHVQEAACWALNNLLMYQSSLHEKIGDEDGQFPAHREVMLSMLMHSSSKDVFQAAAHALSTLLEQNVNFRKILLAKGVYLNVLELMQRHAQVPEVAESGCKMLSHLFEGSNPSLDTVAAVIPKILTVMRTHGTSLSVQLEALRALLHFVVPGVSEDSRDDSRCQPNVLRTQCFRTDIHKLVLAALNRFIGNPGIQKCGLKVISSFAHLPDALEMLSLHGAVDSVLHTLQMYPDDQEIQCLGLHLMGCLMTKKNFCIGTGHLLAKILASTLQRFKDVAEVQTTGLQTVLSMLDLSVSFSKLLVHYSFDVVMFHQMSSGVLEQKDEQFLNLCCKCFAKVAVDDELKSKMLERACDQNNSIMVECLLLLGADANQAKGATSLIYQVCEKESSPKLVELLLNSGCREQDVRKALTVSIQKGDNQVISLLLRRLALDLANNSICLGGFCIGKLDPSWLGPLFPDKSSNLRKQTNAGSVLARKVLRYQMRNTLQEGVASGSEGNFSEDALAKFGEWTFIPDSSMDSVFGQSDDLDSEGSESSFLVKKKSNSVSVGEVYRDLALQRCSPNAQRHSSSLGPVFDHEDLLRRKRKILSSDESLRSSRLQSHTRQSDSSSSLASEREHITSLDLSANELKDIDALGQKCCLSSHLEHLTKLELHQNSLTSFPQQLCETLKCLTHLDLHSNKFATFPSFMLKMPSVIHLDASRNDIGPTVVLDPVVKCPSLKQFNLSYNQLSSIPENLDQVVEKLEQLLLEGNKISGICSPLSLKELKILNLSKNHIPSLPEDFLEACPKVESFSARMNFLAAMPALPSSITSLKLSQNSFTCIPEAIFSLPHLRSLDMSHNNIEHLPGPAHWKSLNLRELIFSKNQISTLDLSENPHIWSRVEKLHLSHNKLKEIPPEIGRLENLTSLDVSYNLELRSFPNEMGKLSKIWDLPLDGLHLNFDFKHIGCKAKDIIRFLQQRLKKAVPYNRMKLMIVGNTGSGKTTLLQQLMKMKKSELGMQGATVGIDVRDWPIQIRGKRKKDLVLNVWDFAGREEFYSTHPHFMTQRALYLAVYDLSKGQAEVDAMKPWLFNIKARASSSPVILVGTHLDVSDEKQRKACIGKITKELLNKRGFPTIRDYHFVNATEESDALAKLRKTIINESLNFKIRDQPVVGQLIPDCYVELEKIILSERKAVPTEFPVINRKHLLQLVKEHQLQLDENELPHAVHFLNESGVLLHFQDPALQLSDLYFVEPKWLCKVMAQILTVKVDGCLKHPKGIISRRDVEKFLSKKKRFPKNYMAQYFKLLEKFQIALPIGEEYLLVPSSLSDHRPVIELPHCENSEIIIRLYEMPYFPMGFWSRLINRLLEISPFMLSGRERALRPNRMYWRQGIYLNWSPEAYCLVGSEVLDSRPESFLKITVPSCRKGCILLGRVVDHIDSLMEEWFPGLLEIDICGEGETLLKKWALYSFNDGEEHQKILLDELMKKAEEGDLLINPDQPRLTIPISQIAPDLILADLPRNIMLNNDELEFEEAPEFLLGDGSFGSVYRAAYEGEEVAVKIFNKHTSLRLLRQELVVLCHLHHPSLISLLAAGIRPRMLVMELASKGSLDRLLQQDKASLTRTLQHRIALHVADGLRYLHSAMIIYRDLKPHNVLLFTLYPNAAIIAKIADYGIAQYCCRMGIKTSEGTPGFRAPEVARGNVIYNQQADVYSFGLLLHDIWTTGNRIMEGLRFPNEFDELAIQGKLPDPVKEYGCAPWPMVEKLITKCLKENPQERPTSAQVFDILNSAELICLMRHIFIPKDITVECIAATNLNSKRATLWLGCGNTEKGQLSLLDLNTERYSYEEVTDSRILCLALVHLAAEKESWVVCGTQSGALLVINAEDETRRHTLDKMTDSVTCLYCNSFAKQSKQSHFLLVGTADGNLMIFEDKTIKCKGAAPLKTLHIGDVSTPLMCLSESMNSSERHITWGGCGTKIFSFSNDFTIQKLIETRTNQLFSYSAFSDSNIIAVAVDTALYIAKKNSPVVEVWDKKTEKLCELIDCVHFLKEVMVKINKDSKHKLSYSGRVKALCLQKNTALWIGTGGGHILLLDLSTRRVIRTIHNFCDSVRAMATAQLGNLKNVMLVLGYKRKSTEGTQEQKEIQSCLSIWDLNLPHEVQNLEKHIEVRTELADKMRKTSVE

SMILES: CC(C)(C)Cn1ccc2c(N3CCOCC3)nc(-c3ccc(NC(=O)c4ccc([18F])nc4)cc3)nc21 [FMN3PA]
Kd (LRRK2 [1]): 20 nM

SMILES: CC(C)(C)Cn1ccc2c(N3CCOCC3)nc(-c3ccc(NC(=O)Nc4ccc([18F])nc4)cc3)nc21 [FMN3PU]
Kd (LRRK2 [1]): 23.6 nM

SMILES: CNc1nc(Nc2ccc(C(=O)N3CCOCC3)cc2O[11CH3])ncc1C(F)(F)F [GNE-1023, reference compound]
IC50 (LRRK2 WT; biochemical LRRK2 assay, n ≥ 2): 2 nM
MDR1 BA/AB (MDR1; MDR1 efflux ratio): 1.2
RRCK PappAB ([2]; passive permeability): 18.2 1 × 10^–6 cm/s

reduction of radioactive uptake under self-blocking (LRRK2 [3]; cerebellum): 83%
reduction of radioactive uptake under self-blocking (LRRK2 [3]; cerebral cortex): 87%
reduction of radioactive uptake under self-blocking (LRRK2 [3]; hippocampus): 87%
reduction of radioactive uptake under self-blocking (LRRK2 [3]; pons): 64%
reduction of radioactive uptake under self-blocking (LRRK2 [3]; striatum): 85%
reduction of radioactive uptake under self-blocking (LRRK2 [3]; thalamus): 83%
SMILES: N#[11C]c1cccc(-c2c[nH]c3ncnc(N4CCOCC4)c23)c1 [[^11C]3]

SMILES: CN(C)c1ncnc2[nH]cc(-c3ccc([18F])nc3)c12 [compound 1]
Kd (LRRK2 [1]): 6.7 nM

SMILES: [18F]c1ccc(-c2c[nH]c3ncnc(N4CCOCC4)c23)cn1 [compound 2]
Kd (LRRK2 [1]): 14.3 nM

SMILES: N#Cc1cccc(-c2c[nH]c3ncnc(N4CCOCC4)c23)c1 [compound 3, 3-(4-morpholino-7H-pyrrolo[2,3-d]pyrimidin-5-yl)benzonitrile]
IC50 (LRRK2 WT; biochemical LRRK2 assay, n ≥ 2): 3 nM
IC50 (LRRK2 G2019S; biochemical LRRK2 assay, n ≥ 2): 14 nM
IC50 (LRRK2 [4]; Table S1): 25 nM
HLM CL [5]: 36 mL/min/kg
IC50 (THLE cells): > 223000 nM
MDR1 BA/AB (MDR1; MDR1 efflux ratio): 1.08
MDR1 BA/AB (MDR1; Table S1): 1.0
RRCK PappAB ([2]; Table S1, unit assumed): 27 10^-6 cm/s
RRCK Papp AB [2]: 26.68
RRCK PappAB ([2]; passive permeability): 26.68 1 × 10^–6 cm/s

SMILES: N#Cc1cccc(-c2c[nH]c3ncnc(N4CCOCC4)c23)c1F [compound 4]
IC50 (LRRK2 WT; Table S1): 3 nM
IC50 (LRRK2 WT; biochemical LRRK2 assay, n ≥ 2): 3.58 nM
IC50 (LRRK2 G2019S; Table S1): 9 nM
IC50 (LRRK2 [4]; whole cellular LRRK2 assay, n ≥ 2): 20 nM
HLM CL [5]: 31.4 mL/min/kg
IC50 (THLE cells): 162000 nM
MDR1 BA/AB (MDR1; MDR1 efflux ratio): 1.10
RRCK PappAB ([2]; Table S1, unit assumed): 29.2 10^-6 cm/s
RRCK Papp AB [2]: 29.18
RRCK PappAB ([2]; passive permeability): 29.18 1 × 10^–6 cm/s
LogD [6]: 2.072
pKa [6]: 5.61
